Assay results reported in patent US20110176998A1, “IMAGING AND THERAPY OF VIRUS-ASSOCIATED TUMORS” (THE JOHNS HOPKINS UNIVERSITY, priority 2007, published 2011).
Entries after “also recorded” stand apart in the source; their conditions may differ. Read-outs that look alike come from different tables or passages of the source.

Columns and labels:
[1] = system: Zta promoter; assay type: cell-based, Epstein-Barr virus; settings: for known lytic inducer re-identified / hit in epithelial promoter reporter assay: library screen at 10 uM; for Zta promoter luciferase activity / induction of BZLF1 promoter: AGS cells
[2] = system: CMV promoter driven GFP in Hela cells
[3] = system: recombinant EBV encoding GFP (BX-1) in AKATA-BX1 cells; assay: GFP whole virus assay in AKATA-BX1 cells; settings: for GFP signal: AKATA-BX1 cells
[4] = system: BZLF1 protein (ZTA); assay: Western blot / immunoblot for ZTA (BZLF1 protein) in EBV positive cell lines; assay type: cell-based, Epstein-Barr virus; settings: for BZLF protein expression: SNU719, AKATA, Raji, LCL and Rael cells
Experimental: To detect expression of the EBV-TK or EBV-ZTA, total cell protein was first extracted by treating cells with lysis buffer (0.05 M Tris, pH 7.6, 0.15 M NaCl, 1% triton-X 100, 2 mM EDTA) containing protease inhibitors for 10 minutes at 4° C. The following reagents were added to 1 mL of lysis buffer: 2 μL leupeptin (5 mg/mL), 1 μL 0.2 M Na3VO4, 1 μL NaF, 1 μL aprotinin (10 mg/ml), 1 μL, pepstatin (2 mM), and 10 μL PMSF (100 mM) for 10 minutes at 4° C. Following centrifugation, the supernatant was collected and stored at −80° C. Protein concentration was determined with the BCA Protein Assay Kit (Pierce, Rockford, Ill.) according to the manufacturer's instructions. A 10 μg aliquot of total cellular protein was fractionated on a 7.5% SDS-polyacrylamide gel. Proteins were transferred to PROTRAN nitrocellulose membrane (Schleicher & Schuell, Keene, N.H.). The membranes were blocked with 5% blotting grade non-fat dry milk (Bio-rad, Hercules, Calif.) in PBS with 0.1% TWEEN-20 (PBS-T) at 4° C. overnight. The membranes were then washed with PBS-T twice followed by incubation with 1/1,000-diluted rabbit anti-TK sera from a rabbit immunized with a synthetic EBV-TK peptide ([…]) or anti-ZTA monoclonal antibody (Argene, North Massapequa, N.Y.) at room temperature for 1 hour. After washing, the membranes were incubated with HRP-conjugated goat anti-rabbit IgG antibodies or HRP-conjugated goat anti-mouse IgG antibodies (Amersham Pharmacia Biotech, Piscataway, N.J.) at a 1/5,000 dilution in PBS-T at room temperature for 1 hour. The membranes were washed twice and proteins were detected with ECL Western Blotting Detection reagents (Amersham Pharmacia Biotech). The membranes were exposed to X-OMAT film (Kodak, Rochester, N.Y.) at room temperature.
For lytic induction studies, cells were seeded at 10^6/ml, and treated with test compounds for 48 hours. Control untreated cells were incubated in parallel.
Cells were washed with PBS twice. Total cellular protein was extracted with lysis buffer. Proteins were electrophoresed in polyacrylamide and then transferred onto a PROTRAN nitrocellulose membrane (Schleicher&Schuell, Keene, N.H.). Blots were probed with primary antibody (Ab) overnight at 4° C. HRP-conjugated secondary Ab was added after washing and detected by an enhanced chemiluminescence system (ECL) (Amersham). The following antibodies were used: anti-ZTA (Argene), anti-f3-actin (Sigma), anti-mouse (Sigma).

[5] = system: EBV(+) Burkitt's lymphoma (Rael); assay: tumor growth, EBV(+) Burkitt's lymphoma (Rael) xenografts; assay type: in vivo, SCID mice; settings: bortezomib without [131I]FIAU
Experimental: Therefore, an evaluation of a therapeutic isotope was carried out. As described above, SCID mice engrafted with EBV Burkitt's lymphoma xenografts received either buffer or bortezomib followed the next day by treatment with [^131I]FIAU or no treatment. […] Thus, bortezomib allowed targeting of [^131I]FIAU with therapeutic effect. Other proteasome inhibitors are also likely to be active. Several are in clinical trial.
Biostatistics. Linear regression and curve fitting were undertaken carried using GraphPad Prism software version 5.00 for Windows, GraphPad Software, San Diego Calif. USA, www.graphpad.com.

[6] = system: EBV viral DNA copy number; assay: real-time PCR for EBV viral DNA copy number (viral replication); assay type: cell-based, Epstein-Barr virus; settings: for lytic protein expression or viral replication: B cells or gastric epithelial cells (SNU 719)
Experimental: Genomic DNA from treated cells were extracted with the QIAamp DNA mini kit (Qiagen, CA) according to the manufacturer's instructions. PCRs were set up in a volume of 50 μL with a TaqMan PCR core reagent kit (Perkin-Elmer Corp., Branchburg, N.J.). Fluorescent probes were custom synthesized by Perkin-Elmer Applied Biosystems. PCR primers were synthesized by Gibco BRL (Frederick, Md.). Each reaction contained 5 μL of 10× buffer A (4 mM MgCl2), amplification primers (300 nM), fluorescent probe (25 nM), dATP, dCTP, and dGTP (200 μM each), dUTP (400 uM), 1.25 U of AmpliTaq Gold, and 0.5 U of AmpErase uracil N-glycosylase. Extracted genomic DNA was used for amplification. DNA amplification was carried out in a 96-well reaction plate in a Perkin-Elmer Applied Biosystems 7700 sequence detector. Each sample was analyzed in duplicate, and multiple negative water blanks were included in each analysis. A calibration curve was run in parallel and in duplicate with each analysis, with DNA extracted from the EBV-positive cell line Namalwa as a standard.
The EBV genome was quantified by real-time PCR with the ICycler system (Biorad, Hercules, Calif.). Template DNA was extracted with a mini blood DNA Kit (Qiagen, Valencia, Calif.). […]. A calibration curve was run in parallel and in duplicate with each analysis, using DNA extracted from the diploid EBV-positive cell line Namalwa containing two integrated viral genomes per cell as a standard. Amplification data were collected with an MyiQ single color real-time PCR Detector (Biorad) and analyzed with the MyiQ software developed by Biorad.

[7] = system: EBV(+) Akata cells; assay: entry of EBV(+) Akata cells into the lytic cycle; settings: 20 nM, 48 hours
[8] = system: EBV-TK; assay: immunoblot for EBV-TK expression; assay type: cell-based, Epstein-Barr virus; settings: Rael cells; immunoblot
Experimental: To detect expression of the EBV-TK or EBV-ZTA, total cell protein was first extracted by treating cells with lysis buffer (0.05 M Tris, pH 7.6, 0.15 M NaCl, 1% triton-X 100, 2 mM EDTA) containing protease inhibitors for 10 minutes at 4° C. The following reagents were added to 1 mL of lysis buffer: 2 μL leupeptin (5 mg/mL), 1 μL 0.2 M Na3VO4, 1 μL NaF, 1 μL aprotinin (10 mg/ml), 1 μL, pepstatin (2 mM), and 10 μL PMSF (100 mM) for 10 minutes at 4° C. Following centrifugation, the supernatant was collected and stored at −80° C. Protein concentration was determined with the BCA Protein Assay Kit (Pierce, Rockford, Ill.) according to the manufacturer's instructions. A 10 μg aliquot of total cellular protein was fractionated on a 7.5% SDS-polyacrylamide gel. Proteins were transferred to PROTRAN nitrocellulose membrane (Schleicher & Schuell, Keene, N.H.). The membranes were blocked with 5% blotting grade non-fat dry milk (Bio-rad, Hercules, Calif.) in PBS with 0.1% TWEEN-20 (PBS-T) at 4° C. overnight. […] The membranes were washed twice and proteins were detected with ECL Western Blotting Detection reagents (Amersham Pharmacia Biotech). […]

[9] = system: EBV-TK functional activity in Burkitt's lymphoma cell lines; assay: in vitro [14C]FIAU cell uptake after bortezomib; assay type: cell-based, Epstein-Barr virus
Experimental: For in vitro [^14C]FIAU uptake studies, cells were seeded at 5×10^5 cells/mL and incubated with 10 nM bortezomib at 37° C. for 6-12 hrs. They were washed and then incubated with 0.04 μCi/mL [^14C]FIAU at 37° C. for 2, 4, 8, 24, 48, 72 hours. Cells were pelleted by centrifugation and washed with unlabeled FIAU. Radioactivity of the isolated cells and pooled medium with washes were then counted separately by scintillation counting with a Beckman Coulter LS5000TA scintillation counter (Fullerton, Calif.). Total cellular protein was extracted by incubating in lysis buffer (0.05 M Tris, pH 7.6, 0.15 M NaCl, 1% triton-X 100, 2 mM EDTA) and cell debris were removed by centrifugation. The supernatant was collected and the protein concentration was determined with the BCA protein assay kit (Pierce, Rockford, Ill.) according to the manufacturer's instructions. Cell uptake was expressed as the accumulation ratio, that is, the counts per minute per gram (cpm/g) of cells divided by the cpm/g (mL) of medium.

[10] = administered to patients for imaging; cited from earlier work

## O=c1[nH]cc(F)c(=O)[nH]1 [5-FU]
[1]
  known lytic inducer re-identified / hit in epithelial promoter reporter assay: verified

## Nc1ncn([C@H]2C[C@H](O)[C@@H](CO)O2)c(=O)n1 [5′-azadeoxycytidine, 5-Aza-2′-deoxycytidine]
[2]
  GFP signal in control cell line: not activated
[1]
  Zta promoter luciferase activity: did not activate; also recorded: not activated
[3]
  GFP signal: induced

## CC(C)C[C@H](NC(=O)[C@H](Cc1ccccc1)NC(=O)c1cnccn1)B(O)O [Bortezomib]
[4]; Rael cells
  ZTA expression: induced
[5]
  tumor growth: slowed tumor growth
[6]; Rael cells, 20 nM for 8 hours, DNA collected after 48 hours
  increase of EBV viral DNA copy number: 20 fold
[6]; real time DNA PCR, Rael
  viral copy number: increased
[1]
  Zta promoter luciferase activity: increases in a bortezomib dose-dependent manner
  known lytic inducer re-identified / hit in epithelial promoter reporter assay: most prominent hit
[1]; 10 nM
  induction of BZLF1 promoter: induced
[1]; luciferase assay
  EC50 for inducing lytic infection: nanomolar scale
[3]
  GFP signal: dose dependent
[3]; 10 nM
  GFP signal: induced GFP signal
[3]; GFP assay
  EC50 for inducing lytic infection: nanomolar scale
[3]; library screen at 10 uM
  known lytic inducer re-identified / hit in lymphoma cell line/whole virus assay: most prominent hit
[7]
  cells entered the lytic cycle: 67%
[8]
  EBV-TK expression: induced

## [Cl][Co][Cl] [Cobalt chloride]
[1]
  known lytic inducer re-identified / hit in epithelial promoter reporter assay: missed
[3]; library screen at 10 uM
  known lytic inducer re-identified / hit in lymphoma cell line/whole virus assay: missed

## COc1cccc2c1C(=O)c1c(O)c3c(c(O)c1C2=O)C[C@@](O)(C(=O)CO)C[C@@H]3O[C@H]1C[C@H](N)[C@H](O)[C@H](C)O1 [Doxorubicin]
[1]
  known lytic inducer re-identified / hit in epithelial promoter reporter assay: verified
[3]; library screen at 10 uM
  known lytic inducer re-identified / hit in lymphoma cell line/whole virus assay: verified

## CC(C(=O)O)c1ccc(N2Cc3ccccc3C2=O)cc1 (stereo not shown) [Indoprofen]
[4]; SNU719 cells, high dose
  ZTA expression: induced
[6]; SNU719 cells
  EBV viral replication: not viral replication; also recorded: did not induce
[1]; 10 μM
  induction of BZLF1 promoter: can induce

## Cc1oncc1C(=O)Nc1ccc(C(F)(F)F)cc1 [Leflunomide, N-(4′-trifluoromethylphenyl)-5-methylisoxazole-4-carboxamide]
[4]
  BZLF protein expression: did not induce
[6]
  lytic protein expression or viral replication: don't induce

## CN(Cc1cnc2nc(N)nc(N)c2n1)c1ccc(C(=O)N[C@@H](CCC(=O)O)C(=O)O)cc1 [Methotrexate]
[1]
  known lytic inducer re-identified / hit in epithelial promoter reporter assay: verified

## CCCCCCCCCCCCCC(=O)O[C@@H]1[C@@H](C)[C@@]2(O)[C@@H](C=C(CO)C[C@]3(O)C(=O)C(C)=C[C@@H]23)[C@@H]2C(C)(C)[C@]12OC(C)=O [PMA]
[1]
  known lytic inducer re-identified / hit in epithelial promoter reporter assay: verified
[3]; library screen at 10 uM
  known lytic inducer re-identified / hit in lymphoma cell line/whole virus assay: verified

## CC(C)[C@H](CO)Nc1nc(Nc2cccc(Cl)c2)c2ncn(C(C)C)c2n1 [Purvalanol A]
[4]; AKATA-BX1, anti-IgG induction
  inhibition of EBV immediate early gene ZTA expression: inhibited
[3]; AKATA-BX1 cells induced with anti-IgG
  inhibition of GFP signal after lytic induction: specifically inhibited

## CCCC(=O)[O-].[Na+] [Sodium butyrate]
[1]
  known lytic inducer re-identified / hit in epithelial promoter reporter assay: missed
[3]; library screen at 10 uM
  known lytic inducer re-identified / hit in lymphoma cell line/whole virus assay: missed

## CCCCCCCCCCCCCC(=O)O[C@@H]1[C@@H](C)[C@@]2(O)[C@@H](C=C(CO)C[C@]3(O)C(=O)C(C)=C[C@@H]23)[C@@H]2C(C)(C)[C@]12OC(C)=O [TPA, phorbol 12-tetradecanoate 13-acetate]
[2]
  GFP signal in control cell line: not activated
[1]
  Zta promoter luciferase activity: activated

## CC(=O)O[C@H]1C(=O)[C@@]2(C)[C@H]([C@H](OC(=O)c3ccccc3)[C@]3(O)C[C@H](OC(=O)[C@H](O)[C@@H](NC(=O)c4ccccc4)c4ccccc4)C(C)=C1C3(C)C)[C@]1(OC(C)=O)CO[C@@H]1C[C@@H]2O [Taxol]
[1]
  known lytic inducer re-identified / hit in epithelial promoter reporter assay: verified

## COc1ccc(C=CC(=O)Nc2ccccc2C(=O)O)cc1OC [Tranilast, N-(3,4-dimethoxycinnamoyl)anthranilic acid]
[4]
  BZLF protein expression: did not induce
[6]
  lytic protein expression or viral replication: don't induce

## O=c1[nH][14c](=O)n([C@@H]2O[C@H](CO)[C@@H](O)[C@@H]2F)cc1I [[^14C]FIAU, [2-^14C]2′-Fluoro-2′-deoxy-β-D-5-iodouracil-arabinofuranoside]
[9]; EBV(+) Akata and EBV(+) Rael cells following treatment with bortezomib
  accumulation of [14C]FIAU: increased
[9]; EBV(−) Akata cells following treatment with bortezomib
  accumulation of [14C]FIAU: not

## O=c1[nH]c(=O)n([C@@H]2O[C@H](CO)[C@@H](O)[C@@H]2F)cc1[125I] [[^124I]FIAU, 2′-fluoro-2′deoxy-1-beta-D-arabinofuranosyl-5-iodo-uracil]
[10]
  effect on hepatic function: without any adverse effect on hepatic function

## CCCC(=O)O [butyrate]
[1]
  Zta promoter luciferase activity: activated

## N.N.[Cl][Pt][Cl] [cis-platinum]
[1]
  known lytic inducer re-identified / hit in epithelial promoter reporter assay: verified

## CC[C@H](C)C(=O)O[C@H]1C[C@@H](C)C=C2C=C[C@H](C)[C@H](CC[C@@H]3C[C@@H](O)CC(=O)O3)[C@H]21 [lovastatin]
[3]; library screen at 10 uM, picked after day 10
  suppression hits in GFP whole virus assay: suppression hits

## CCCC(CCC)C(=O)O [valproate]
[1]
  Zta promoter luciferase activity: activated
[1]; listed as valproic acid
  Zta promoter luciferase activity: increased expression of luciferase in a dose-dependent manner

## Arginine butyrate
[1]
  known lytic inducer re-identified / hit in epithelial promoter reporter assay: missed
[3]; library screen at 10 uM
  known lytic inducer re-identified / hit in lymphoma cell line/whole virus assay: missed
